Where “and” joins values, the source holds several entries; their conditions need not be identical. Identical values can stand only once.
Experiments:
FIV UT-113 = experiment: FIV infection of CrFK cells, FIV p24 ELISA; format: cell-based, Feline immunodeficiency virus (FIV); details: 100 to 0.024 µM, p24 after 6 days
Procedure: After 6 days of incubation FIV replication was measured by quantification of the p24 viral core antigen in the cell culture supernatant by an FIV p24 enzyme-linked immunoabsorbent assay as described previously ^19.

CrFK cells = experiment: Cellular viability assay (MTT) of CrFK cells; format: cell-based, feline; details: concentrations used in the FIV assay
MHV-A59 = experiment: MHV infection of mouse L cells, CPE scoring; format: cell-based, Mouse hepatitis virus (MHV); details: 24h, 143 to 0.009 µM
Procedure: (§1) After 24h, the cytopatic effect (CPE) of the virus and the cytotoxicity of the compounds were scored by microscopic observation.

Mouse L cells = experiment: Cytotoxicity in mouse L cells by microscopic observation; details: mouse L cells, all tested concentrations
Procedure: as §1

HIV-1Ba-L [1] = experiment: HIV-1 infection of PBMC, p24-core antigen ELISA; format: cell-based; details: Human immunodeficiency virus 1, PBMC; read-out: IC50
Procedure: To correct for the input virus, an extra control consisting of medium containing the same amount of input virus as added to the cells was included in the experiment. The amount of p24 in this control was subsequently subtracted from the p24 values of the samples in order to obtain the exact amount of p24 produced by the cells. p24-core antigen quantification by ELISA After 2 or 7 days incubation, samples of the supernatants were collected, inactivated by addition of Empigen (Calbiochem, La Jolla, CA, USA) and by heat inactivation at 56°C for 30 min. p24-core antigen concentration was determined by an enzyme linked immunoabsorbent assay (ELISA) (AMPAK™, DAKO, Cambridgeshire, UK) as described previously ^18,19. The optical density values were converted into p24 concentration (ng/ml) with the use of a calibration curve made by serial dilutions of recombinant p24 protein (NIBSC, UK) that was submitted to the same treatment as the samples.
(§2) To correct for the input virus, an extra control consisting of medium containing the same amount of input virus as added to the cells was included in the experiment. The amount of p24 in this control was subsequently subtracted from the p24 values of the samples in order to obtain the exact amount of p24 produced by the cells.
(§3) After 7 days incubation, samples of the supernatants were collected, inactivated by addition of Empigen (Calbiochem, La Jolla, CA, USA) and by heat inactivation at 56°C for 30 min. p24-core antigen concentration was determined by an ELISA (AMPAK™, DAKO, Cambridgeshire, UK) as described previously ^39,40. The optical density values were converted into p24 concentration (ng/ml) with the use of a calibration curve made by serial dilutions of recombinant p24 protein (NIBSC, UK) that was submitted to the same treatment as the samples.
as §2
as §3, with “enzyme linked immunoabsorbent assay (ELISA)” for “ELISA”, “15,16.” for “^39,40.”

HIV-1HXB2 = experiment: Reverse transcription assay in PBMC: (-) strong stop and gag DNA by real-time Taqman PCR; format: cell-based; details: 10h after infection; for reduction in gag cDNA copies: PBMC
Procedure: PBMC infection with HIV-1Ba-L or HIV-1HXB2 for real-time Taqman PCR The ability of HIV-1Ba-L to enter the cells in the presence of APHS was tested using DS as positive control (entry assay). The amount of HIV-1HXB2 reverse transcription products in the presence of APHS was also tested, using AZT as positive control (reverse transcription assay). Before infection, PHA-stimulated PBMC from the PBMC batch were pre-incubated with different concentrations of APHS, DS or AZT for 24 h. Afterwards, cells were washed and 1 × 10^6 PBMC were incubated for 40 min with HIV-1Ba-L or HIV-1HXB2 at an M.O.I. of 0.0025 and with appropriate concentrations of APHS, AZT, DS or medium in the presence of 1/20 concentrated M buffer (Roche) and 4U/ml DNase (Roche) to digest possible contaminating viral DNA associated with the virions. Afterwards PBMC were washed and resuspended in medium with or without compounds. Cells were treated with 1 mg/ml Pronase (Roche) to remove virus particles bound to the cells. […] At different time points, 1.0 × 10^6 cells were added to 900 µl Nuclisens lysis buffer (Organon Teknika, Boxtel, The Netherlands) containing 40 µl silica to bind total nucleic acids (Nuclisens isolation kit). For the entry assay, samples were collected 2h after the start of the infection and for the reverse transcription assays samples were collected 2, 7 and 10h after the start of the infection.
HIV RNA and DNA were extracted from samples of infected cells according to a method described before ^23. Briefly, after 10 min of mixing the silica and lysis buffer, tubes were shortly centrifuged at 13,000 rpm and supernatant was discarded. Free non-nucleic acid components were removed by washing the silica particles twice with Nuclisens washing buffer, twice with 70 % ethanol and once with acetone. The silica pellet was dried for 10 min at 56 °C. Total nucleic acids were eluted by resuspending the pellet in 100 µl nuclease-free water. After mixing the tubes for 10 min at 56 °C, tubes were shortly centrifuged and the supernatant was transferred to a new tube and stored at -20 °C.
Real-time Taqman PCR is based on cleavage of a probe, hybridized to the target sequence by 5'-3' nuclease activity of Taq DNA polymerase during amplification, as described previously ^24. Briefly, target sequence-specific forward and reverse primers prime the amplification reaction. The probe contains a reporter dye at the 5' end and a quencher dye at the 3' end. When both dyes are attached to the probe, reporter dye emission is quenched. The probe is displaced from the target during each polymeration cycle. Once separated from the quencher, the reporter dye emits its characteristic fluorescence, which can then be measured. The amount of fluorescence measured is proportional to the amount of PCR product.
HIV-1 gag cDNA and HIV-1 (-) strong stop and gag DNA were amplified and quantified by real-time Taqman PCR as described elsewhere ^25. Sets of primers/probes were designed according to a previous study by Zack and colleagues ^26. To quantify the amount of gag RNA in the samples, a cDNA standard curve was prepared from five-fold dilutions of extracted RNA from an HXB2 viral batch, of which the RNA amount was previously determined. To quantify (-) strong stop and gag DNA in the samples, a DNA standard curve was prepared from five-fold dilutions of DNA extracted from U1 cells, which contain two copies of the HIV-1HXB2 genome per cell. Albumin was also quantified and used for normalization of all samples.

in vitro = details: human
HIV-1Ba-L [2] = experiment: Combination of HIV-1 inhibitors in HIV-1Ba-L infected PBMC (checker board, CalcuSyn)
Procedure: After 7 days of incubation, p24 antigen in culture supernatant was quantified by ELISA and cellular viability was assessed by a cytotoxicity assay. fa was calculated for each drug combination after p24 quantification. Using the CalcuSyn program, dose-effect curves were plotted for each drug combination, i.e., each dose was plotted against the corresponding fa value. […] CI values were calculated using the mutually nonexclusive assumption.

CCCCCSc1ccccc1O [APHS-d, phenol, 2-(pentylthio)]
effect on FIV replication (FIV UT-113): did not show any effect | cytotoxicity for CrFK cells (CrFK cells): not cytotoxic | effect on MHV replication (CPE) (MHV-A59): no effect | cytotoxicity by microscopic observation (Mouse L cells): not cytotoxic

Cc1cn([C@H]2C[C@H](N=[N+]=[N-])[C@@H](CO)O2)c(=O)[nH]c1=O [AZT, zidovudine]
IC50 (HIV-1Ba-L [1]): 3 nM | reduction in gag cDNA copies (HIV-1HXB2; 5 nM AZT): 35% and 40% | reduction in gag cDNA copies (HIV-1HXB2; 1000 nM AZT): 90% | (-) strong stop DNA copy numbers versus untreated PBMC (HIV-1HXB2; 10 or 30 µM APHS, 5 or 1000 nM AZT): did not show a significant decrease | CC50 at 7 days (in vitro): > 80000 nM | IC50 (HIV-1Ba-L [2]; Human immunodeficiency virus 1, PBMC, 168 h, read-out: IC50 Drug, drug alone, head over this column prints Combination): 3 nM | IC50 (HIV-1Ba-L [2]; read-out: IC50 Combination Drug, drug in combination with APHS at the equipotent ratio (1 : 1)): 2 nM
